Laboratory results published in BindingDB's records for doi:10.1021/jm00168a025 (State University of New York, 1990).
pIC50: −log10 of the molar value.

Biological target: Squalene monooxygenase (Sus scrofa)
Assay: Inhibition of pig liver squalene epoxidase

## CC(C)=CCC/C(C)=C/CC/C(C)=C/CC/C=C(\C)CC/C=C(\C)CCCCO
  pIC50: 5.40

## CC(C)=CCC/C(C)=C/CC/C(C)=C/CCCO
  pIC50: < 3.40

## CC(C)=CCC/C(C)=C/CC/C(C)=C/CC/C=C(\C)CCCO
  pIC50: 4.00

## CC(C)=CCC/C(C)=C/CC/C(C)=C/CC/C=C(\C)CC/C=C(\C)CC/C=C(\C)CCCO
  pIC50: < 3.40

## CC(C)=CCC/C(C)=C/CC/C(C)=C/CC/C=C(\C)CC/C=C(\C)CCCO
  pIC50: 5.40
